Assays:
[1] = tested on: Spring wheat (Triticum aestivum Cadenza); assay: Recovery response: regrowth (biomass) of water stressed wheat plants after re-watering; assay type: in vivo; conditions: 4-week-old wheat plants sprayed once with 30 mL of 1 mM after 9 days of drought; watering resumed 1 day after treatment
Experimental: (§1) Spring wheat (Triticum aestivum Cadenza) seeds were sown in Rothamsted Prescription Compost Mix (75% medium grade (L+P) peat, 12% screened sterilised loam, 3% medium grade vermiculite, 10% grit (lime-free), 3.5 kg Osmocote Exact 3-4 month/m^3 (Scott's UK Professional, Ipswich, Suffolk, www.scottinternational.com), 0.5 kg PG mix/m^3 (Hydro Agri Ltd., Immingham, UK), Wetting agent and Lime) and grown in controlled environment conditions with a photoperiod of 16 hours light, 8 hours dark, day/night temperatures of 20° C./16° C., photon flux density of 600 μmol m^−2 s^−1, and ambient relative humidity. Once the plants had reached Feekes stage 4, water was withheld for 10 days. On the 9th day, 30 ml 1 mM solutions of oNPE-T6P and DMNBT6P were applied to all above-ground biomass, on the 10th day the watering schedule was reinstated. Plants were harvested to measure biomass production every 5 days for 30 days after watering was reinstated. Both experiments were completed in replicates of 6.
(§2) Analysis of Variance (ANOVA) was applied to data to test for differences between treatments. A natural log transformation was used where necessary to ensure constant variance. The GENSTAT statistical system was used for this analysis (2011, 14th edition, ©VSN International Ltd, Hemel Hempstead, UK).
The effect of the signalling precursors upon plant resilience and recovery were tested. Drought is still the biggest global factor that limits crop yields, even in developed countries, such as the UK (Boyer, 1982, Science 218: 443-448).

[2] = tested on: Spring wheat (Triticum aestivum Cadenza); assay: Resurrection response: regrowth of new tissue from plants cut back after drought treatment; assay type: in vivo; conditions: one application of 1 mM one day prior to re-watering, cut at 5 days after re-watering, left to regrow for 10 days
Experimental: as §1
as §2, with “UK). […]” for “UK).”

Row | Compound | regrowth (recovery response) following resumption of watering [1] | regrowth (resurrection response) of new tissue from plants cut back after drought treatment [2]
1 | O=P(O)(O)OC[C@H]1O[C@H](O[C@H]2O[C@H](CO)[C@@H](O)[C@H](O)[C@H]2O)[C@H](O)[C@@H](O)[C@@H]1O [Compound T6P, trehalose 6-phosphate] | identical results to use of water alone | identical results to use of water alone
2 | COc1cc(COP(=O)(OCc2cc(OC)c(OC)cc2[N+](=O)[O-])OC[C@H]2O[C@H](O[C@H]3O[C@H](CO)[C@@H](O)[C@H](O)[C@H]3O)[C@H](O)[C@@H](O)[C@@H]2O)c([N+](=O)[O-])cc1OC [DMNB-T6P 2, 6-O-bis-(4,5-dimethoxy-2-nitrobenzyloxyphosphoryl)-D-trehalose] | the effects were dramatic | 
3 | CC(OP(=O)(OC[C@H]1O[C@H](O[C@H]2O[C@H](CO)[C@@H](O)[C@H](O)[C@H]2O)[C@H](O)[C@@H](O)[C@@H]1O)OC(C)c1ccccc1[N+](=O)[O-])c1ccccc1[N+](=O)[O-] (stereo partly drawn) [oNPE-T6P 3, 6-O-bis[1-(2-nitrophenyl)-ethoxyphosphoryl]-D-trehalose] | the effects were dramatic | 

From patent US11533913B2, “Treating water stress in plants” (Rothamsted Research Limited, priority 2015, dated 2022)
